In ChEMBL document CHEMBL1201862, “PubChem BioAssay data set” (2004):
“Also recorded” adds a separate entry of the source. Values belong to the compound of their own block, whether it stands above or below them. Active and inactive are the calls of the source.

What was measured:
Cytochrome P450 2C19 = Cytochrome P450 2C19 (Homo sapiens, UniProt P33261); experiment: Cytochrome panel assay with activity outcomes. Panel member name: p450-cyp2c19 Compounds with AC50 equal or less than 10 uM are considered active; format: functional
Cytochrome P450 1A2 [1] = target: T1, Cytochrome P450 1A2 (Homo sapiens, UniProt P05177);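 note: PubChem cytochrome P450 panel assay, CYP1A2 panel member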
T1 sequence (P05177 whole entry): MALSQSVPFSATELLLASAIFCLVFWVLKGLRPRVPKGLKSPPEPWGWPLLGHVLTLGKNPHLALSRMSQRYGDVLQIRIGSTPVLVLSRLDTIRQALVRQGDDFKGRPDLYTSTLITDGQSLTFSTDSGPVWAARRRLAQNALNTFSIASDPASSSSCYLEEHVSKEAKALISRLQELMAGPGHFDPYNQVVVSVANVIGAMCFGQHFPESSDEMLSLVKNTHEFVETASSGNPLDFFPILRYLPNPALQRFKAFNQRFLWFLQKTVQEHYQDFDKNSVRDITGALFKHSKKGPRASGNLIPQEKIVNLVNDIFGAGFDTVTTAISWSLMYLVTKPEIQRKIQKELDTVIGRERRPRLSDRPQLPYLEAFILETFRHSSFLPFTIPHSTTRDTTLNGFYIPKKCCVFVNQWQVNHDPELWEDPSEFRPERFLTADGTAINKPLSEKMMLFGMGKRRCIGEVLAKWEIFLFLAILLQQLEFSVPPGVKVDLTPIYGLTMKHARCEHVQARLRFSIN

[2] = restored growth of temperature-sensitive Burl-1 yeast – whole organism, S. cerevisiae, Burl-1 ts mutant, luminescence, counter-screen for SUMOylation pathway inhibitor project, dose response (AID 463199); format: functional
Cytochrome P450 2C9 = Cytochrome P450 2C9 (Homo sapiens, UniProt P11712)
Cytochrome P450 3A4 [3] = target: T2, Cytochrome P450 3A4 (Homo sapiens, UniProt P08684);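 note: CYP3A4 tested as one member of a cytochrome P450 panel screen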
Cytochrome P450 3A4 [4] = target: T2, Cytochrome P450 3A4; remark: listed apart in the source
Cytochrome P450 1A2 [5] = target: T1, Cytochrome P450 1A2; remark: listed apart in the source
Cytochrome P450 2D6 [6] = target: T3, Cytochrome P450 2D6 (Homo sapiens, UniProt P10635); experiment: qHTS Assay for Inhibitors and Substrates of Cytochrome P450 2D6. [Related pubchem assays: 410 ]; format: ADME; settings: read-out: Potency
Cytochrome P450 2D6 [7] = target: T3, Cytochrome P450 2D6
[8] = target: Lysine-specific demethylase 4C (Homo sapiens, UniProt Q9H3R0); experiment: inhibition of JMJD2C H3K9me3 demethylation – biochemical, DELFIA europium, cherry-picked samples, dose response (AID 488835); format: functional
[9] = target: Heat shock protein HSP 90-alpha (Homo sapiens, UniProt P07900); format: functional, organism-based
INS1 = experiment: INS-1E survival protection against cytokine death – cell-based, luminescence, retest, dose response (AID 449756); format: functional; settings: Rattus norvegicus;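 note: cell death triggered by IL-1 beta plus TNF-alpha plus IFN-gamma mixture; protective hits raise ATP signal compared with cytokine alone wells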
[10] = target: T4, Rac GTPase-activating protein 1 (Homo sapiens, UniProt Q9H0H5); experiment: blockers of MgcRacGAP-driven Rac1 GTP hydrolysis – biochemical, ADP Hunter fluorescence, primary and confirmatory, confirmation (AID 624330); format: functional
T4 sequence (Q9H0H5 whole entry): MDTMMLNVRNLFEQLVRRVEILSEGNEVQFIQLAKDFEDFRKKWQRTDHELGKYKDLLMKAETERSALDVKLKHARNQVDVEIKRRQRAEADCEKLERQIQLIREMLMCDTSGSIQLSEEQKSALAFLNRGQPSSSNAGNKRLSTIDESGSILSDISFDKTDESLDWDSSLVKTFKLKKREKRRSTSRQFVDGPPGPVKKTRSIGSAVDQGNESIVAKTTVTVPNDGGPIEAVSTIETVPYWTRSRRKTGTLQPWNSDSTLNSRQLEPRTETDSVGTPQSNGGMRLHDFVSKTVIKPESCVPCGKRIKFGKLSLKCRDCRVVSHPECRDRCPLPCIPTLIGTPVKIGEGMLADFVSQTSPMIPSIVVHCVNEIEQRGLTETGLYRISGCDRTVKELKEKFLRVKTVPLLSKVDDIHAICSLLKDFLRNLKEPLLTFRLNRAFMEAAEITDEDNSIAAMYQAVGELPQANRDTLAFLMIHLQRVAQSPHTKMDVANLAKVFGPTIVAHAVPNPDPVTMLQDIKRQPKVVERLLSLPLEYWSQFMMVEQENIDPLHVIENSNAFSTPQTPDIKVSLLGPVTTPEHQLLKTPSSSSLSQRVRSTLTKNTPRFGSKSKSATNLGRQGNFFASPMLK

[11] = target: T5, Apoptotic protease-activating factor 1 (Homo sapiens, UniProt O14727); format: functional
T5 sequence (O14727 whole entry): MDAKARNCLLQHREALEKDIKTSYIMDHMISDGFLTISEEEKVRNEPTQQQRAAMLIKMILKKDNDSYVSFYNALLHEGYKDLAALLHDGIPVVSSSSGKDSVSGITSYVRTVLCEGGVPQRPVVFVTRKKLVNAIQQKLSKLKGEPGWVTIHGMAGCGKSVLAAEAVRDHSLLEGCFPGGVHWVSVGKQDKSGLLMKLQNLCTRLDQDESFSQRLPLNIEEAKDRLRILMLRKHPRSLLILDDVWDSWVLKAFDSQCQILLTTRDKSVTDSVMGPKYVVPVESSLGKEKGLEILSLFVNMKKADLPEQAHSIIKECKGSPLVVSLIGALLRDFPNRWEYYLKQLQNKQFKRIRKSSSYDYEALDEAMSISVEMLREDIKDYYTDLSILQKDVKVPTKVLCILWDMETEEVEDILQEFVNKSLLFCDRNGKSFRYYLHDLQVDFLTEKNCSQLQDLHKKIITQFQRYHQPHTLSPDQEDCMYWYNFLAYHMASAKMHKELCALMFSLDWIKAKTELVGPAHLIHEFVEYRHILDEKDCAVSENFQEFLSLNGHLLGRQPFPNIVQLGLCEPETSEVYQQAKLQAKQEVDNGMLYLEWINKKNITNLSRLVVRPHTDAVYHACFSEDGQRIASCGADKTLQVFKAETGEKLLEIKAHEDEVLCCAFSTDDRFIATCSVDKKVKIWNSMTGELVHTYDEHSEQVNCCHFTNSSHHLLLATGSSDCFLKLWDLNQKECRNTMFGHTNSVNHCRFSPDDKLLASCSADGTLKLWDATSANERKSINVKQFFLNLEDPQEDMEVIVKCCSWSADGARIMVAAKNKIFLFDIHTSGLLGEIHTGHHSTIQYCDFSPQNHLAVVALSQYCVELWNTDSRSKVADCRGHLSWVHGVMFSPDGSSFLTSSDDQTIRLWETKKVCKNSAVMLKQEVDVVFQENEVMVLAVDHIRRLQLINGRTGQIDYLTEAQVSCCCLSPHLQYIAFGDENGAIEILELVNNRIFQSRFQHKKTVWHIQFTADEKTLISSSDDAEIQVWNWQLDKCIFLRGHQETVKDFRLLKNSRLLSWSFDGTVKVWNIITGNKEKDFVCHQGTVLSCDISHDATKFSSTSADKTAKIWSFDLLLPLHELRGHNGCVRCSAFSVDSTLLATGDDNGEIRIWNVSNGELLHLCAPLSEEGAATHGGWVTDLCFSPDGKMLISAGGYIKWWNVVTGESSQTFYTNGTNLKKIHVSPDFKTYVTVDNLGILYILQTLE

[12] = target: DNA dC->dU-editing enzyme APOBEC-3A (Homo sapiens, UniProt P31941); experiment: A3A deaminase inhibition for selectivity – biochemical, dose response (AID 504722); format: functional
[13] = target: RNA-editing ligase 1, mitochondrial (Trypanosoma brucei brucei, UniProt P86926); experiment: inhibition of trypanosome RNA editing ligase – biochemical, fluorescence, Trypanosoma brucei, dose response (AID 1117295); format: functional
[14] = target: DNA dC->dU-editing enzyme APOBEC-3G (Homo sapiens, UniProt Q9HC16); experiment: Dose Response confirmation of small molecule APOBEC3G DNA Deaminase Inhibitors via a fluorescence-based single-stranded DNA deaminase assay. [Related pubchem assays (depositor defined):AID493012, AID493028]; format: functional
[15] = target: T6, Short transient receptor potential channel 4 (Mus musculus, UniProt Q9QUQ5); experiment: block of DAMGO-driven TRPC4 calcium entry – cell-based, HEK293 TRPC4/mu-opioid, Fluo-4 calcium, dose response (AID 434942); format: functional;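 note: potency of inhibitors blocking the TRPC4 calcium response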
T6 sequence (Q9QUQ5 whole entry): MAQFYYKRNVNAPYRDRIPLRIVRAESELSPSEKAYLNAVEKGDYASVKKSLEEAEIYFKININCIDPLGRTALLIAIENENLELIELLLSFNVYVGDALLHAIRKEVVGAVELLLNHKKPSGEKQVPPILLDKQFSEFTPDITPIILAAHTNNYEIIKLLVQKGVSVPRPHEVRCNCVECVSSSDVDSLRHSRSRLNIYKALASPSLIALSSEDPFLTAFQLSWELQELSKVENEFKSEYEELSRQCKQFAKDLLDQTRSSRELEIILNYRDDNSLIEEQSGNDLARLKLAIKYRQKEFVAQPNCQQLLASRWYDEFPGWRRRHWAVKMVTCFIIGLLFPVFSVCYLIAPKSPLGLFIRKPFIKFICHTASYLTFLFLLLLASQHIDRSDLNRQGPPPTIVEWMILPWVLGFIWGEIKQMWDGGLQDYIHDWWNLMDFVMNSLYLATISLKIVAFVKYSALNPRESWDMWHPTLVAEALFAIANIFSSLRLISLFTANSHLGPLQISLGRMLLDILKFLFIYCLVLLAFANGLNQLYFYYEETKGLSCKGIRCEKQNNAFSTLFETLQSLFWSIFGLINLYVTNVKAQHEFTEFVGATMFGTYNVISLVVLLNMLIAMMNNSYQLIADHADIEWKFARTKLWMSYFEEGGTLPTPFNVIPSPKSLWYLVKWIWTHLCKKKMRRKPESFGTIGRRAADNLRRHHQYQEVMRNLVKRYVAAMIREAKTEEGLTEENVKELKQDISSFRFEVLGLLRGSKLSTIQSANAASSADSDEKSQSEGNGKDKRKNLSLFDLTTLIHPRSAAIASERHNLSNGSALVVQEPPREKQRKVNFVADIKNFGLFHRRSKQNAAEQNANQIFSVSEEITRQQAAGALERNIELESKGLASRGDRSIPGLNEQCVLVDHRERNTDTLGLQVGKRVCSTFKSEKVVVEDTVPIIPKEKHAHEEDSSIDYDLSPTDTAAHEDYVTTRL

[16] = target: T6, Short transient receptor potential channel 4; experiment: SAR Analysis for the identification of selective inhibits of the transient receptor potential cation channel C4 (TRPC4): Automated Electrophysiology. [Related pubchem assays (depositor defined):AID2256]; format: functional
[17] = target: T7, Heat shock factor protein 1 (Mus musculus, UniProt P38532); experiment: decrease of HSF1-responsive luciferase luminescence – cell-based, NIH3T3, dose retest, confirmation (AID 2382); format: functional;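 note: NIH3T3 fibroblasts with HSF1-driven luciferase reporter stressed by proteasome inhibitor MG132; luminescence from HSF1-driven luciferase expression after 8 hours of MG132 stress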
T7 sequence (P38532 whole entry): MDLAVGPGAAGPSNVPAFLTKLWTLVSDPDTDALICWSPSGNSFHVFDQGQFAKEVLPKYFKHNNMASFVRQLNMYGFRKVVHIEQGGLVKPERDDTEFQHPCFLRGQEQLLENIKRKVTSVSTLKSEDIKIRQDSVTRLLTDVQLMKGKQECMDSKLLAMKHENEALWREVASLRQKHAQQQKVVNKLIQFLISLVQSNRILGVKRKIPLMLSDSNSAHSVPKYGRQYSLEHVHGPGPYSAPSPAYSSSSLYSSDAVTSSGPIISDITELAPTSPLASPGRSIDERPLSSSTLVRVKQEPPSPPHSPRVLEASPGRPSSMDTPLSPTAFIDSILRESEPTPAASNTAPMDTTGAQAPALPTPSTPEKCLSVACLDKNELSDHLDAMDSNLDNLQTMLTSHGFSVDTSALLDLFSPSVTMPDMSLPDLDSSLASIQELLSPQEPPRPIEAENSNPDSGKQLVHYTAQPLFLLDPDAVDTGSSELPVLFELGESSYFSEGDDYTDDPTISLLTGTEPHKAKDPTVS

Apelin receptor = Apelin receptor (Homo sapiens, UniProt P35414); experiment: apelin receptor antagonists, arrestin read-out – cell-based, luminescent, enzyme-fragment complementation, selectivity assay for CCR6 antagonist project, SAR follow-up (AID 588359); format: functional
Beta-galactosidase = Beta-galactosidase (Escherichia coli, UniProt Q8VNN2); experiment: detection-enzyme interference by beta-gal modulators – biochemical, E. coli enzyme, set 3, artefact control for CCR6 antagonist project, dose response (AID 504712); format: functional
Sequence of Beta-galactosidase (Q8VNN2 whole entry): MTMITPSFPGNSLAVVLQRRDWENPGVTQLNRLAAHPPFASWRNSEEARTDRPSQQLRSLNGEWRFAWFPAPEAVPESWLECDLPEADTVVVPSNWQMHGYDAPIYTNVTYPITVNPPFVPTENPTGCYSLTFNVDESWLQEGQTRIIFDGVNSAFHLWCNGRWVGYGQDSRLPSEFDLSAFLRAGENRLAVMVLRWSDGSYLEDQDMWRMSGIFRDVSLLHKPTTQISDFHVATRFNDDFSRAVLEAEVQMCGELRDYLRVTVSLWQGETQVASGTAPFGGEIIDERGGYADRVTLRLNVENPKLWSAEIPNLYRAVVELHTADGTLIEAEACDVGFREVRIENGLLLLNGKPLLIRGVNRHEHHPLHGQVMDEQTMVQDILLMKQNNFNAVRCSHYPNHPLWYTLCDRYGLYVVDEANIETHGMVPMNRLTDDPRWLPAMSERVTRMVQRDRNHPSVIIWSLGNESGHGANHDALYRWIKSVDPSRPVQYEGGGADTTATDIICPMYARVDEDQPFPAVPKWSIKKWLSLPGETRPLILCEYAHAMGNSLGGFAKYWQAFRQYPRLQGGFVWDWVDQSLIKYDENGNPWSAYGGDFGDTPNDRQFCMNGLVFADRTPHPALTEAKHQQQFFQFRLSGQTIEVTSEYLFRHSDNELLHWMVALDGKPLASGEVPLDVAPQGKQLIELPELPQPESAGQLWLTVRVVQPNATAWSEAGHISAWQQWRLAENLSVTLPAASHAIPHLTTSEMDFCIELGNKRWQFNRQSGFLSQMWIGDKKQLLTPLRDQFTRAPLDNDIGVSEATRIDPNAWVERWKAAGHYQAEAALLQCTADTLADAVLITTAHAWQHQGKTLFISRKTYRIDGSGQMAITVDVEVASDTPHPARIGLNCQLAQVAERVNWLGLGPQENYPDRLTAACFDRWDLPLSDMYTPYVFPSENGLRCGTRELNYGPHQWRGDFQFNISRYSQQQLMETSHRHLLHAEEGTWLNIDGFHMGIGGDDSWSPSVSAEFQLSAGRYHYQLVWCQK

T3 sequence (P10635 whole entry): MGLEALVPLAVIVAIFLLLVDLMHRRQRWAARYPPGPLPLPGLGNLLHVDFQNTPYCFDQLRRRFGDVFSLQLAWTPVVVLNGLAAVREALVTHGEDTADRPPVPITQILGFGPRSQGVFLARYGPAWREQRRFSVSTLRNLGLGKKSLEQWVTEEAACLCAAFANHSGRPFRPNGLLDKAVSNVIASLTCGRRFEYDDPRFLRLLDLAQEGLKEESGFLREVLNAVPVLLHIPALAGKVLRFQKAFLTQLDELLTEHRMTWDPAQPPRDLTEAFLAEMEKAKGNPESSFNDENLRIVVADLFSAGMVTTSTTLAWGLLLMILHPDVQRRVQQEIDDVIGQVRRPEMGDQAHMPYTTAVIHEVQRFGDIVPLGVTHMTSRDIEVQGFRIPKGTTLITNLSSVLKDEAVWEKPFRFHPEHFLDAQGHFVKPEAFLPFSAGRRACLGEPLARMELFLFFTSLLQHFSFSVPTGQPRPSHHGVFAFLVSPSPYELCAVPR
Sequence of Cytochrome P450 2C19 (P33261 whole entry): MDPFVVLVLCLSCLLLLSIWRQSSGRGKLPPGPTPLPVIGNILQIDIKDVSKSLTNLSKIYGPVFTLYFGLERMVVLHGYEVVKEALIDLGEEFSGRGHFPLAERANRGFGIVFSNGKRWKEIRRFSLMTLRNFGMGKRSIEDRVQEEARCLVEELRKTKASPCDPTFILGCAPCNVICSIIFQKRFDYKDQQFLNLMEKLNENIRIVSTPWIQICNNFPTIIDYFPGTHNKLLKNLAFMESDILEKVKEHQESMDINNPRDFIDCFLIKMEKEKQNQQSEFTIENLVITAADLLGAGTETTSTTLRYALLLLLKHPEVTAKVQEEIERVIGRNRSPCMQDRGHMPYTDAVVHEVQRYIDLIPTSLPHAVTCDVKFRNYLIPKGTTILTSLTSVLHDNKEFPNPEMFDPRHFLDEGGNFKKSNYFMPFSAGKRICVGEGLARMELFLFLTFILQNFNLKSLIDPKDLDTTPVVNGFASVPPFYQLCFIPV
T2 sequence (P08684 whole entry): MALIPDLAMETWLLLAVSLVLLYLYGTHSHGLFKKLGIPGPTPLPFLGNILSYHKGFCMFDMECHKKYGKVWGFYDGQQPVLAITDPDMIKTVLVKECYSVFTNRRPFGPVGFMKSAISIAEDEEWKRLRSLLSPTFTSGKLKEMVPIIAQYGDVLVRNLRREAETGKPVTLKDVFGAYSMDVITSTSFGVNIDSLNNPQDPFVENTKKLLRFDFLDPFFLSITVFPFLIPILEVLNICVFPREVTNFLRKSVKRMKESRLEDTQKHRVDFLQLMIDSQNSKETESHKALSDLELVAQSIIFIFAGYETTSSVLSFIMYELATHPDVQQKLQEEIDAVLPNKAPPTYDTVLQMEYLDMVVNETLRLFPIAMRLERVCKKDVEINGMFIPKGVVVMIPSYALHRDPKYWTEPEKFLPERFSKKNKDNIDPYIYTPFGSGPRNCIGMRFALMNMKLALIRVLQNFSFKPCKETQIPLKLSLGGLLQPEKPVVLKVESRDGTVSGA
Sequence of Lysine-specific demethylase 4C (Q9H3R0 whole entry): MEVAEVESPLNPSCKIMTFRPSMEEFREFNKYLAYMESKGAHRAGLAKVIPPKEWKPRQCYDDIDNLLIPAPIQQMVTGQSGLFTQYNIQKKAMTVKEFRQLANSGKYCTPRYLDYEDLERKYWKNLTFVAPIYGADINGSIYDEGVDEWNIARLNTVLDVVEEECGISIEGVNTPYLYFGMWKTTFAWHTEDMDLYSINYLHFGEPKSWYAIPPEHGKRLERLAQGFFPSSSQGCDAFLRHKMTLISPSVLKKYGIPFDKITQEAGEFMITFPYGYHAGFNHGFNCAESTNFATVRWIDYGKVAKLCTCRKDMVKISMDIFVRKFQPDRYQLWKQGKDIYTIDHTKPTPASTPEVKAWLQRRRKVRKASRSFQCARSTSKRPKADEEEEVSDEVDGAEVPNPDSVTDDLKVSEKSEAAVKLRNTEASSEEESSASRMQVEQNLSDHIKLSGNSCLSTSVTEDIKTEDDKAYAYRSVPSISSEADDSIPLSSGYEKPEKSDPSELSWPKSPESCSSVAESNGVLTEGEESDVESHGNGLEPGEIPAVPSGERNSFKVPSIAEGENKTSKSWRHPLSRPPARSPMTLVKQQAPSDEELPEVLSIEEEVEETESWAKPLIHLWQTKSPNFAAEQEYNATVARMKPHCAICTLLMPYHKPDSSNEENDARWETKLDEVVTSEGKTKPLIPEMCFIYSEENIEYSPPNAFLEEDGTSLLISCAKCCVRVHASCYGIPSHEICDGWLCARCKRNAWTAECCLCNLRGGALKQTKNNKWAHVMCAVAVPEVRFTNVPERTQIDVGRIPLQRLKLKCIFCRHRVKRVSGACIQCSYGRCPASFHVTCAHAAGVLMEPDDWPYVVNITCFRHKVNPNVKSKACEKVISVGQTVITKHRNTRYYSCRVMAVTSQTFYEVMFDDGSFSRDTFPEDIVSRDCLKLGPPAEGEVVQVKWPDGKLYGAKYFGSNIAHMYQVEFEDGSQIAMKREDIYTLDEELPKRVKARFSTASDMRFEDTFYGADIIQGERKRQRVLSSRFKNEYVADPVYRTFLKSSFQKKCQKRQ
Sequence of Cytochrome P450 2C9 (P11712 whole entry): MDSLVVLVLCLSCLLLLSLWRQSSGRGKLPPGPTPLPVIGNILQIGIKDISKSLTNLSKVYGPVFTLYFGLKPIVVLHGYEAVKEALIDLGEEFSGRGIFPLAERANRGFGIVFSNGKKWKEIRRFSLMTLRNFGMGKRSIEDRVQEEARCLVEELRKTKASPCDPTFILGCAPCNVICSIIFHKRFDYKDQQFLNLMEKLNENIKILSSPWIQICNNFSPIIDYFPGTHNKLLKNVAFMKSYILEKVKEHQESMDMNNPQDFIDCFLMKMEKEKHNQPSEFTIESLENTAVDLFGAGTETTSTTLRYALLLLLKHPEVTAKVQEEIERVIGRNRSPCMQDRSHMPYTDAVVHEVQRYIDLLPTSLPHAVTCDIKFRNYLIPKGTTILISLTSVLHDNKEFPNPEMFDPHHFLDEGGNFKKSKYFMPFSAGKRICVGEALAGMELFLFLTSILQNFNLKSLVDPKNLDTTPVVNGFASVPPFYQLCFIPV
Sequence of DNA dC->dU-editing enzyme APOBEC-3A (P31941 whole entry): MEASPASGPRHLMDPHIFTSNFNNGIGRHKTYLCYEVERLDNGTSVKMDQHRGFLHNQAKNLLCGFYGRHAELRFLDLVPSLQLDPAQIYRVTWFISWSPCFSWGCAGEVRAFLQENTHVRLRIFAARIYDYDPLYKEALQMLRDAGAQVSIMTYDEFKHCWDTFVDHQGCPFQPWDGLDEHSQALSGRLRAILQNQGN
Sequence of Apelin receptor (P35414 whole entry, the tested form may be a part): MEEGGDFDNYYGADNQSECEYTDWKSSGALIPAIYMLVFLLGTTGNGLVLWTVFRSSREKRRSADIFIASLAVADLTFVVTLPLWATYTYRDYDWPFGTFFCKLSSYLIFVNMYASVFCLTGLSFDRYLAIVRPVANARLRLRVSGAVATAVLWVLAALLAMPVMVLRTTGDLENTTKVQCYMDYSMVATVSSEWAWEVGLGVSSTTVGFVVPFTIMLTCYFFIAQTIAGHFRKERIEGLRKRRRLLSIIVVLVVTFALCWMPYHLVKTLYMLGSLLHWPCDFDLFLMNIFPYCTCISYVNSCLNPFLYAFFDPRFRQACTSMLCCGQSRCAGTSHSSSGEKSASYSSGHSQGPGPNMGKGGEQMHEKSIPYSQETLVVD

Compound: COc1cc2nc(N3CCN(C(=O)[C@@H]4COc5ccccc5O4)CC3)nc(N)c2cc1OC.CS(=O)(=O)O
AC50 (Cytochrome P450 2C19; read-out: AC50): 0.501 µM (inconclusive) | AC50 (Cytochrome P450 1A2 [1]): inactive

Compound: CCNCCNC(=O)c1c(O)nc2c(c1O)CCCC2
AC50 [2]: 73.1 µM (active)

Compound: N[C@H](CCC(=O)O)C(=O)O [D-GLUTAMATE]
AC50 (Cytochrome P450 2C9): inactive | AC50 (Cytochrome P450 3A4 [3]): inactive | AC50 (Cytochrome P450 3A4 [4]): 25.1 µM (inconclusive) | AC50 (Cytochrome P450 1A2 [5]): 31.6 µM (inconclusive) | AC50 (Cytochrome P450 2C19): inactive | AC50 (Cytochrome P450 2D6 [6]): 10 µM (not active) | AC50 (Cytochrome P450 1A2 [1]): inactive | AC50 (Cytochrome P450 2D6 [7]): inactive; also recorded: inconclusive

Compound: Cc1nnc(N=c2ssnc2Cl)o1
AC50 [8]: 6.06 µM (active) | AC50 [9]: 3.13 µM (active) | AC50 (INS1): 3.77 µM (active) | IC50 [10]: 69.6 µM (active) | IC50 [11]: 16 µM (active) | IC50 [12]: > 100 µM (inactive) | IC50 [13]: 79 µM (inactive) | IC50 [14]: 4.6 µM (active)

Compound: O=C(c1ccc([N+](=O)[O-])cc1)N1CCN(c2ncc(Br)cn2)CC1
AC50 [2]: 72.3 µM (active) | EC50 [17]: > 195 µM (not active)

Further lines, results first:

EC50 [15]: 1.88 µM (active) | IC50 [16]: 38.7 µM (active)
Compound: O=C(Cc1ccccc1)Nc1ccccc1Sc1ccccc1

IC50 (Apelin receptor): 14.8 µM (active) | IC50 (Beta-galactosidase): > 66.6 µM (inactive)
Compound: O=C(NNC(=O)c1cc(-c2ccccc2)nn1-c1ccccc1)c1ccccc1
